Columns and labels:
CCRF-CEM = experiment: NCI screen, growth of human tumor cells: Leukemia CCRF-CEM; type: cell-based; details: CCRF-CEM (Leukemia), 10^−4 molar
Method in brief: (§1)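 Under the NCI protocol, every compound is profiled with sixty or more data points. Each point ties a cancer type and a molar screening concentration to a percent growth value.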

HL-60 (TB) = experiment: NCI screen, growth of human tumor cells: Leukemia HL-60 (TB); type: cell-based; details: HL-60 (TB) (Leukemia), 10^−4 molar
Procedure: (§2) In the NCI screening process, each compound was tested and described by a minimum of 60 data points. The test data include, but are not limited to the type of cancer, the molar concentration used in the screen, and the percent growth of the cancer. In some cases, NMR and elemental analysis were used for structural assignment.

K562 = experiment: NCI screen, growth of human tumor cells: Leukemia K562; type: cell-based; details: K562 (Leukemia), 10^−4 molar
Method in brief: as §1

MOLT-4 = experiment: NCI screen, growth of human tumor cells: Leukemia MOLT-4; type: cell-based; details: MOLT-4 (Leukemia), 10^−4 molar
Method in brief: as §1

RPMI-8226 = experiment: NCI screen, growth of human tumor cells: Leukemia RPMI-8226; type: cell-based; details: RPMI-8226 (Leukemia), 10^−4 molar
Method in brief: as §1

AS49/ATCC = experiment: NCI screen, growth of human tumor cells: Non-Small Cell Lung AS49/ATCC; type: cell-based; details: AS49/ATCC (Non-Small Cell Lung), 10^−4 molar
Method in brief: as §1

HOP-62 = experiment: NCI screen, growth of human tumor cells: Non-Small Cell Lung HOP-62; type: cell-based; details: HOP-62 (Non-Small Cell Lung), 10^−4 molar
Method in brief: as §1

NCI-H522 = experiment: NCI screen, growth of human tumor cells: Non-Small Cell Lung NCI-H522; type: cell-based; details: NCI-H522 (Non-Small Cell Lung), 10^−4 molar
Method in brief: as §1

NCI-H460 = experiment: NCI screen, growth of human tumor cells: Non-Small Cell Lung NCI-H460; type: cell-based
Method in brief: as §1

HCT-116 = experiment: NCI screen, growth of human tumor cells: Colon Cancer HCT-116; type: cell-based; details: HCT-116 (Colon Cancer), 10^−4 molar
Method in brief: as §1

HCT-15 = experiment: NCI screen, growth of human tumor cells: Colon Cancer HCT-15; type: cell-based; details: HCT-15 (Colon Cancer), 10^−4 molar
Method in brief: as §1

HT29 = experiment: NCI screen, growth of human tumor cells: Colon Cancer HT29; type: cell-based; details: HT29 (Colon Cancer), 10^−4 molar
Method in brief: as §1

KM12 = experiment: NCI screen, growth of human tumor cells: Colon Cancer KM12; type: cell-based; details: KM12 (Colon Cancer), 10^−4 molar
Method in brief: as §1

SF-268 = experiment: NCI screen, growth of human tumor cells: CNS Cancer SF-268; type: cell-based; details: SF-268 (CNS Cancer), 10^−4 molar
Method in brief: as §1

SF-295 = experiment: NCI screen, growth of human tumor cells: CNS Cancer SF-295; type: cell-based; details: SF-295 (CNS Cancer), 10^−4 molar
Method in brief: as §1

SF-539 = experiment: NCI screen, growth of human tumor cells: CNS Cancer SF-539; type: cell-based; details: SF-539 (CNS Cancer), 10^−4 molar
Method in brief: as §1

SNB-75 = experiment: NCI screen, growth of human tumor cells: CNS Cancer SNB-75; type: cell-based
Method in brief: as §1

LOXIMVI = experiment: NCI screen, growth of human tumor cells: Melanoma LOXIMVI; type: cell-based; details: LOXIMVI (Melanoma), 10^−4 molar
Method in brief: as §1

M14 = experiment: NCI screen, growth of human tumor cells: Melanoma M14; type: cell-based; details: M14 (Melanoma), 10^−4 molar
Method in brief: as §1

SK-MEL-5 = experiment: NCI screen, growth of human tumor cells: Melanoma SK-MEL-5; type: cell-based; details: SK-MEL-5 (Melanoma), 10^−4 molar
Method in brief: as §1

UACC-257 = experiment: NCI screen, growth of human tumor cells: Melanoma UACC-257; type: cell-based; details: UACC-257 (Melanoma), 10^−4 molar
Method in brief: as §1

UACC-62 = experiment: NCI screen, growth of human tumor cells: Melanoma UACC-62; type: cell-based; details: UACC-62 (Melanoma), 10^−4 molar
Method in brief: as §1

IGROVI = experiment: NCI screen, growth of human tumor cells: Ovarian Cancer IGROVI; type: cell-based; details: IGROVI (Ovarian Cancer), 10^−4 molar
Method in brief: as §1

SK-OV-3 = experiment: NCI screen, growth of human tumor cells: Ovarian Cancer SK-OV-3; type: cell-based; details: SK-OV-3 (Ovarian Cancer), 10^−4 molar
Method in brief: as §1

OVCAR-3 = experiment: NCI screen, growth of human tumor cells: Ovarian Cancer OVCAR-3; type: cell-based; details: OVCAR-3 (Ovarian Cancer), 10^−4 molar
Method in brief: as §1

OVCAR-4 = experiment: NCI screen, growth of human tumor cells: Ovarian Cancer OVCAR-4; type: cell-based; details: OVCAR-4 (Ovarian Cancer), 10^−4 molar
Method in brief: as §1

OVCAR-8 = experiment: NCI screen, growth of human tumor cells: Ovarian Cancer OVCAR-8; type: cell-based; details: OVCAR-8 (Ovarian Cancer), 10^−4 molar
Method in brief: as §1

786-0 = experiment: NCI screen, growth of human tumor cells: Renal Cancer 786-0; type: cell-based; details: 786-0 (Renal Cancer), 10^−4 molar
Method in brief: as §1

ACHN = experiment: NCI screen, growth of human tumor cells: Renal Cancer ACHN; type: cell-based; details: ACHN (Renal Cancer), 10^−4 molar
Method in brief: as §1

RXF-393 = experiment: NCI screen, growth of human tumor cells: Renal Cancer RXF-393; type: cell-based; details: RXF-393 (Renal Cancer), 10^−4 molar
Method in brief: as §1

SN12C = experiment: NCI screen, growth of human tumor cells: Renal Cancer SN12C; type: cell-based; details: SN12C (Renal Cancer), 10^−4 molar
Method in brief: as §1

CAKI-1 = experiment: NCI screen, growth of human tumor cells: Renal Cancer CAKI-1; type: cell-based; details: CAKI-1 (Renal Cancer), 10^−4 molar
Method in brief: as §1

UO-31 = experiment: NCI screen, growth of human tumor cells: Renal Cancer UO-31; type: cell-based; details: UO-31 (Renal Cancer), 10^−4 molar
Method in brief: as §1

DU-145 = experiment: NCI screen, growth of human tumor cells: Prostate Cancer DU-145; type: cell-based; details: DU-145 (Prostate Cancer), 10^−4 molar
Method in brief: as §1

MCF 7 = experiment: NCI screen, growth of human tumor cells: Breast Cancer MCF 7; type: cell-based; details: MCF 7 (Breast Cancer), 10^−4 molar
Method in brief: as §1

MCF7/ADR-RES = experiment: NCI screen, growth of human tumor cells: Breast Cancer MCF7/ADR-RES; type: cell-based; details: MCF7/ADR-RES (Breast Cancer), 10^−4 molar
Method in brief: as §1

HS 578T = experiment: NCI screen, growth of human tumor cells: Breast Cancer HS 578T; type: cell-based; details: HS 578T (Breast Cancer), 10^−4 molar
Method in brief: as §1

MDA-N = experiment: NCI screen, growth of human tumor cells: Breast Cancer MDA-N; type: cell-based; details: 10^−4 molar
Procedure: as §2

human cancer cells = experiment: NCI screen summary over the cancers tested (negative growth of human cancer cells); type: cell-based; details: 10^−4 M conc.; cancers with negative growth / cancers tested
Procedure: as §2
The derivatives in the tables are grouped using the same category as in the tables 1-6.

O=S1(=O)OCCOS(=O)(=O)C1C1c2ccccc2-c2ccccc21 [NSC 686562, ethylene 9-fluorenylmethanedisulfonate]
percent of growth of human tumor cells (CCRF-CEM): −3%
percent of growth of human tumor cells (HL-60 (TB)): −20%
percent of growth of human tumor cells (K562): 16%
percent of growth of human tumor cells (MOLT-4): −32%
percent of growth of human tumor cells (RPMI-8226): 9%
percent of growth of human tumor cells (AS49/ATCC): 30%
percent of growth of human tumor cells (HOP-62): 5%
percent of growth of human tumor cells (NCI-H522): −19%
% Growth (NCI-H460; NCI-H460, 10^−4 molar): −50%
% Growth (NCI-H460; NCI-H460, 10^−5 molar): 56%
percent of growth of human tumor cells (HCT-116): 0%
percent of growth of human tumor cells (HCT-15): 15%
percent of growth of human tumor cells (HT29): 26%
percent of growth of human tumor cells (KM12): 22%
percent of growth of human tumor cells (SF-268): 29%
percent of growth of human tumor cells (SF-295): 22%
percent of growth of human tumor cells (SF-539): 10%
% Growth (SNB-75; SNB-75, 10^−4 molar): −28%
% Growth (SNB-75; SNB-75, 10^−5 molar): 28%
% Growth (SNB-75; SNB-75, 10^−6 molar): 64%
percent of growth of human tumor cells (LOXIMVI): −27%
percent of growth of human tumor cells (M14): 23%
percent of growth of human tumor cells (SK-MEL-5): 4%
percent of growth of human tumor cells (UACC-257): 28%
percent of growth of human tumor cells (UACC-62): 10%
percent of growth of human tumor cells (IGROVI): 16%
percent of growth of human tumor cells (SK-OV-3): 25%
percent of growth of human tumor cells (OVCAR-3): 25%
percent of growth of human tumor cells (OVCAR-4): −39%
percent of growth of human tumor cells (OVCAR-8): 29%
percent of growth of human tumor cells (786-0): 2%
percent of growth of human tumor cells (ACHN): 9%
percent of growth of human tumor cells (RXF-393): 25%
percent of growth of human tumor cells (SN12C): 28%
percent of growth of human tumor cells (CAKI-1): −1%
percent of growth of human tumor cells (UO-31): −3%
percent of growth of human tumor cells (DU-145): 9%
percent of growth of human tumor cells (MCF 7): 23%
percent of growth of human tumor cells (MCF7/ADR-RES): −7%
percent of growth of human tumor cells (HS 578T): 24%
percent of growth of human tumor cells (MDA-N): 17%
Percentage of cancers showing negative growth cancers tested (human cancer cells): 10^−4 M conc. = 11/38 = 29%
melting point: 118 to 124 °C
